Measurements as given in patent US20260193311A1, “METHODS AND COMPOSITIONS FOR STIMULATION OF CHIMERIC ANTIGEN RECEPTOR T CELLS WITH HAPTEN LABELLED CELLS” (Seattle Children's Hospital (dba Seattle Children's …, priority 2018, published 2026).

Tests used:
CD19+ Raji cells = test: flow cytometry for presence of FL on hapten-labeled cells; format: cell-based
Experimental: Hapten-labeled cells were prepared by either attaching the hapten, fluorescein (FL), to the cells via an integrated phospholipid or via an antibody. CD19+ Raji cells (lymphoma cell line) were incubated either overnight with 5 μM FL-DHPE (FIG. 3B), or for 20 min with an antiCD19 antibody labeled with fluorescein isothiocyanate (FITC). The cells were washed, stained, and analyzed by flow cytometry for the presence of FL. […] The levels of FL were higher for cells treated with FL-DHPE compared to cells treated with the antiCD19 antibody (FIG. 4A). This was consistent with different tethering techniques providing different levels of hapten on the surface of a cell.

[1] = system: CD19+K562 cells (hapten-labeled); test: cytokine release assay of antiFL CAR T cells against hapten-labelled cells; format: cell-based; details: target cells prepared with 5 μM FL-DHPE
Experimental: Hapten-labeled cells were prepared. CD19^+K562 cells were incubated either overnight with 5 μM FL-DHPE or for 20 min with an CD19 antibody labeled with FITC. The hapten-labeled cells were incubated with either one of two antiFL CAR T cells (FITC-E2 scFv, or 4M5.3 scFv). […] Hudecek M, et al., (2013) Clin Cancer Res. 19:3153-64, which is incorporated by reference in its entirety.
The levels of cytokines released by the antiFL CAR T cells were determined. […] The levels of released IFN-7, and TNF-α were lower for hapten-labeled cells contacted with the antiFL(4M5.3) CART cell. Also, there was a trend for hapten-labeled cells prepared with FL-DHPE inducing higher levels of cytokine release compared to hapten-labeled cells prepared with an CD19 antibody labeled with FITC.

SMILES: CCCCCCCCCCCCCCCC(=O)OCC(COP(=O)(O)OCCNC(=S)Nc1ccc2c(c1)C(=O)OC21c2ccc(O)cc2Oc2cc(O)ccc21)OC(=O)CCCCCCCCCCCCCCC (stereo not drawn) [FL-DHPE, N-(Fluorescein-5-Thiocarbamoyl)-1,2-Dihexadecanoyl-sn-Glycero-3-Phosphoethanolamine]
- presence of FL, shift compared to untreated control cells (CD19+ Raji cells; 5 μM FL-DHPE overnight): positive shift
- levels of FL compared to cells treated with the antiCD19 antibody (CD19+ Raji cells; 5 μM FL-DHPE overnight vs antibody 20 min): higher
- cytokine release compared to hapten-labeled cells prepared with CD19 antibody labeled with FITC (trend) [1]: higher levels
